Experimental data: patent US8344028B2, “Gamma-amino-butyric acid derivatives as GABAB receptor ligands” (XenoPort, Inc., priority 2009, dated 2013)

The compounds below were run against GABAB receptor (Homo sapiens, UniProt Q9UBS5) (assay: GABAB receptor agonist or partial agonist activity by binding, electrophysiology, cAMP and/or Ca2+ assay methods (Examples 83-86)).
Type: cell-based
Experimental: An assay using rat cerebral cortex membranes was used to determine the affinity of GABAB receptor ligands for the GABAB receptor.
An assay buffer of 50 mM Tris pH 7.4 was prepared with 100 μM of isoguvacine, to block GABAA interactions. The assay buffer with isoguvacine was used for dilution of membranes, compounds, and radiolabel.
Rat cerebral cortex membranes were diluted in assay buffer at 1 mg/mL and aliquoted into a 96-well plate at 900 μL/well. Buffer or test compound were added at 20-times final concentration in the buffer at 50 μL/well. Membranes and test compounds or buffer were incubated for 10 min. at room temperature. Radiolableled [S—(R*,R*)]-[3-[[1-(3,4-dichlorophenyl)ethyl]amino]-2-hydroxypropyl](cyclohexylmethyl) phosphinic acid (CGP54626) was then added at 50 μL/well in the buffer at 1-10 nM concentration in 50 μl. […] The assay mixture was filtered using Brandell filtration apparatus and GFB filters, washed twice with 3 mL of 4° C., 50 mM Tris pH 7.4, buffer without isoguvacine. The filters were then dried at room temperature and the dried filters punched out and placed in individual vials. Three (3) mL of scintillation fluid was added to each vial and the radiolabel counted on the scintillation counter. The inverse amount of radiolabel was indicative of binding of a test compound to the GABAB receptor.
The following procedure was used to determine the level of intracellular cAMP. Recombinant HEK cells expressing the GABAB R1a2 receptor were used in the experiments. cAMP levels were measured using a cAMP XS^+ HitHunter™ Chemiluminescence Assay Kit (90-0075-02, GE Healthcare Biosciences Corp.). Cells were seeded overnight at 5,000 cells per well, in black, clear bottom 96-well plates. The following morning, cells were washed twice with 100 μL PBS per well. Forskolin was weighed out and dissolved in DMSO to a final concentration 100 mM. One-hundred (100) μM forskolin solutions were prepared in PBS with and without test compound at 1-times final concentration. Thirty (30) μL of the test solutions were added to the wells and incubated for 1 h at room temperature. The cAMP concentration was determined according to the protocol described in the cAMP assay kit, maintaining the plate at room temperature and in the dark. […] Each well was read for 6 seconds. The untransformed data was then analyzed.
The following procedure was used to determine the GABAB receptor agonist activity of a compound as reflected by activation of Ca^2+ signaling. HEK TREx cells expressing GABABR1a2 under tetracycline induction control, and Gqi chimeric protein (expressed constitutively), allowing GABABR coupling through the Ca^2+ signaling pathway were used in the experiments.
Cells were seeded in media containing tetracycline overnight at 100,000 cells/well, in black, clear-bottom, 96-well plates. The following morning, cells were washed twice with 100 μL HBSS buffer per well. Fluorescent Ca^2+ indicator dye was prepared using the materials and procedure described in the F362056 Fluo-4 NW Calcium Assay Kit (Invitrogen, Carlsbad, Calif.). Ten (10) mL of kit buffer and 100 μl of kit Probenecid were added to individual kit dye vials, and rolled back and forth several times to dissolve the dye. Cells were then loaded into the dye solution at 50 μL per well. The cells and dye were incubated for 30 min at 37° C., and then incubated for an additional 30 min at room temperature in the dark. Test compounds are dissolved in HBSS buffer at twice final concentration. Duplicate wells were used for each unique condition. Solution containing the test compound was added to the wells using a FLEXStation II (Molecular Devices, Sunnyvale, Calif.). Using the instrument in kinetic mode in which each well was read every 2 sec over a total collection time of 50 sec fluorescence was measured using an excitation wavelength 494 nm and a detection wavelength of 516 nm. A normalized fluorescence value for each well was calculated using the following procedure.

Chain of GABAB receptor (Q9UBS5 20-961): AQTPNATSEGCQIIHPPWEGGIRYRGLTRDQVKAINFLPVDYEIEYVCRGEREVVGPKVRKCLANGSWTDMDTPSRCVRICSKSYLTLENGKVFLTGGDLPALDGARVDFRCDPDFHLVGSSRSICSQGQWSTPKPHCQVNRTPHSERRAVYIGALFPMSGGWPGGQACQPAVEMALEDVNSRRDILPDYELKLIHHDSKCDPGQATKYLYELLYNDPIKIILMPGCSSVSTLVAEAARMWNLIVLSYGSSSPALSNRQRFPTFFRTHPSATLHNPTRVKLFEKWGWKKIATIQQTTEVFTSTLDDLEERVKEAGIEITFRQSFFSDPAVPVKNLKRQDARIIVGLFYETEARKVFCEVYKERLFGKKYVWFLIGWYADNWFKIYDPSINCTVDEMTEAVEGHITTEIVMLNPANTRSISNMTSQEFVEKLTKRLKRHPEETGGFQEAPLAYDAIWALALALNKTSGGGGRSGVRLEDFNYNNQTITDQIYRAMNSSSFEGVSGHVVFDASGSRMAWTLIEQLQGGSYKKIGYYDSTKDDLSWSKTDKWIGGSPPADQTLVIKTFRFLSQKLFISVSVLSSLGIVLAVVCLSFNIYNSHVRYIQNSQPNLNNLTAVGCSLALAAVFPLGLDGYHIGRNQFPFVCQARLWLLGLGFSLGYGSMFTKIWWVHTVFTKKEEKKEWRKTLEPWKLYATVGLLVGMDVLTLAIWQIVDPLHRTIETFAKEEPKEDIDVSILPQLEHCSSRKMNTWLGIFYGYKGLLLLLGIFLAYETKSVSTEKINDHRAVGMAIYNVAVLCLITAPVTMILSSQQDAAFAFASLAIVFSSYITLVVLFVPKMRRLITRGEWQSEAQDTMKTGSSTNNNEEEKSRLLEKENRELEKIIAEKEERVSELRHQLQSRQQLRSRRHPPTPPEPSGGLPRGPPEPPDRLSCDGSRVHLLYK
Chain of GABAB receptor (O75899 42-941 partner): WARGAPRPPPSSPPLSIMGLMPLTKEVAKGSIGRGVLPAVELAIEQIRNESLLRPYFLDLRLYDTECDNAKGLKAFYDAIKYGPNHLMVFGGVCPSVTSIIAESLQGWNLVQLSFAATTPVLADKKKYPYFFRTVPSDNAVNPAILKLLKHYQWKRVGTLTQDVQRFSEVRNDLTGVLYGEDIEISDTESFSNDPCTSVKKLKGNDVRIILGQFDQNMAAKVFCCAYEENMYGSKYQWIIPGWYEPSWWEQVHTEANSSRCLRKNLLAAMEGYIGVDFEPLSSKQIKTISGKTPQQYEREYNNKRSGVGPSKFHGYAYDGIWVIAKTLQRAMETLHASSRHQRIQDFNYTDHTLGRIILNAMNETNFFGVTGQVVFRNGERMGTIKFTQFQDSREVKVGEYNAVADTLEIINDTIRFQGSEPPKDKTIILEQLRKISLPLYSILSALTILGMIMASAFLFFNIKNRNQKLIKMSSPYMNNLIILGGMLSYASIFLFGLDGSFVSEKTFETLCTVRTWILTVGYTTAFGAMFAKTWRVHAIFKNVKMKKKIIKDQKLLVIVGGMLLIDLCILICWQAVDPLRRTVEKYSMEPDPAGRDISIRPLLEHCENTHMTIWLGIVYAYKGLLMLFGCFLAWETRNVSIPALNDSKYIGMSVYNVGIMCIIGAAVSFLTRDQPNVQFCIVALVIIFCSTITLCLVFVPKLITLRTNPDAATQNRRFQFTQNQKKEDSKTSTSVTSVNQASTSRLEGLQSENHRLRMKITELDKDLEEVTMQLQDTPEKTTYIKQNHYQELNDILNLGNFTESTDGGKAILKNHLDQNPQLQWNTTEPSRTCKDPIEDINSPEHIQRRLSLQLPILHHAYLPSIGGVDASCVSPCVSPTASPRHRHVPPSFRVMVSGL

| SMILES | GABAB receptor agonist or partial agonist activity |
| --- | --- |
| Cl.NC[C@H](CC(=O)O)c1ccc(Cl)c(-c2ccc(CC(=O)O)cc2)c1 [(3R)-4-amino-3-{3-[4-(carboxymethyl)phenyl]-4-chlorophenyl}butanoic acid hydrochloride] | agonist or partial agonist activity |
| CN(C)c1cccc(-c2cc([C@H](CN)CC(=O)O)ccc2Cl)n1.Cl [(3R)-4-amino-3-{3-[6-(dimethylamino)(2-pyridyl)]-4-chlorophenyl}butanoic acid hydrochloride] | agonist or partial agonist activity |
| Cc1cc(C(=O)Nc2cc([C@H](CN)CC(=O)O)ccc2Cl)n(C)n1 [(3R)-4-amino-3-{3-[(1,3-dimethylpyrazol-5-yl)carbonylamino]-4-chlorophenyl}butanoic acid] | agonist or partial agonist activity |
| NC[C@H](CC(=O)O)c1ccc(Cl)c(-c2cncc(C(F)(F)F)c2)c1 [(3R)-4-amino-3-{4-chloro-3-[5-(trifluoromethyl)(3-pyridyl)]phenyl}butanoic acid] | agonist or partial agonist activity |
| Cl.N#Cc1ccccc1COc1cc([C@H](CN)CC(=O)O)ccc1Cl [(3R)-4-amino-3-{4-chloro-3-[(2-cyanophenyl)methoxy]phenyl}butanoic acid hydrochloride] | agonist or partial agonist activity |
| Cl.NC[C@H](CC(=O)O)c1ccc(Cl)c(NCc2ccco2)c1 [(3R)-4-amino-3-{4-chloro-3-[(2-furylmethyl)amino]phenyl}butanoic acid hydrochloride] | agonist or partial agonist activity |
| NC[C@H](CC(=O)O)c1ccc(Cl)c(NCCc2ccccc2)c1 [(3R)-4-amino-3-{4-chloro-3-[(2-phenylethyl)amino]phenyl}butanoic acid] | agonist or partial agonist activity |
| Cl.NC[C@H](CC(=O)O)c1ccc(Cl)c(NS(=O)(=O)c2ccccn2)c1 [(3R)-4-amino-3-{4-chloro-3-[(2-pyridylsulfonyl)amino]phenyl}butanoic acid hydrochloride] | agonist or partial agonist activity |
| N#Cc1cccc(C(=O)Nc2cc([C@H](CN)CC(=O)O)ccc2Cl)c1 [(3R)-4-amino-3-{4-chloro-3-[(3-cyanophenyl)carbonylamino]phenyl}butanoic acid] | agonist or partial agonist activity |
| Cl.N#Cc1cccc(COc2cc([C@H](CN)CC(=O)O)ccc2Cl)c1 [(3R)-4-amino-3-{4-chloro-3-[(3-cyanophenyl)methoxy]phenyl}butanoic acid hydrochloride] | agonist or partial agonist activity |
| NC[C@H](CC(=O)O)c1ccc(Cl)c(NC(=O)c2cccc(F)c2)c1 [(3R)-4-amino-3-{4-chloro-3-[(3-fluorophenyl)carbonylamino]phenyl}butanoic acid] | agonist or partial agonist activity |
| Cl.NC[C@H](CC(=O)O)c1ccc(Cl)c(Cc2cccc([N+](=O)[O-])c2)c1 [(3R)-4-amino-3-{4-chloro-3-[(3-nitrophenyl)methyl]phenyl}butanoic acid hydrochloride] | agonist or partial agonist activity |
| NC[C@H](CC(=O)O)c1ccc(Cl)c(NCc2cccnc2)c1 [(3R)-4-amino-3-{4-chloro-3-[(3-pyridylmethyl)amino]phenyl}butanoic acid] | agonist or partial agonist activity |
| Cl.N#Cc1ccc(COc2cc([C@H](CN)CC(=O)O)ccc2Cl)cc1 [(3R)-4-amino-3-{4-chloro-3-[(4-cyanophenyl)methoxy]phenyl}butanoic acid hydrochloride] | agonist or partial agonist activity |
| NC[C@H](CC(=O)O)c1ccc(Cl)c(NC(=O)c2ccc([N+](=O)[O-])cc2)c1 [(3R)-4-amino-3-{4-chloro-3-[(4-nitrophenyl)carbonylamino]phenyl}butanoic acid] | agonist or partial agonist activity |
| CN(Cc1ccccc1)c1cc([C@H](CN)CC(=O)O)ccc1Cl.Cl [(3R)-4-amino-3-{4-chloro-3-[methylbenzylamino]phenyl}butanoic acid hydrochloride] | agonist or partial agonist activity |
| Cl.NC[C@@H](CC(=O)O)c1ccc(Cl)c(-c2cccnc2)c1 [(3S)-4-amino-3-(4-chloro-3-(3-pyridyl)phenyl)butanoic acid hydrochloride] | agonist or partial agonist activity |
| Cl.N#Cc1cccc(-c2cc([C@@H](CN)CC(=O)O)ccc2Cl)c1 [(3S)-4-amino-3-[4-chloro-3-(3-cyanophenyl)phenyl]butanoic acid hydrochloride] | agonist or partial agonist activity |
| Cl.NC[C@@H](CC(=O)O)c1ccc(Cl)c(NCc2ccncc2)c1 [(3S)-4-amino-3-{4-chloro-3-[(4-pyridylmethyl)amino]phenyl}butanoic acid hydrochloride] | agonist or partial agonist activity |
| Cl.NC[C@H](CC(=O)O)c1ccc(Cl)cc1-c1cccnc1 [Example 8, (3R)-4-Amino-3-[4-chloro-2-(3-pyridyl)phenyl]butanoic acid hydrochloride] | agonist or partial agonist activity |
| Cl.NC[C@H](CC(=O)O)c1ccc(Cl)cc1C(=O)c1ccccc1 [Example 11, (3R)-4-Amino-3-[4-chloro-2-(phenylcarbonyl)phenyl]butanoic acid hydrochloride] | agonist or partial agonist activity |
| NC[C@H](CC(=O)O)c1ccc(Cl)c(Nc2ccccc2C(=O)O)c1 [Example 13, 2-({5-[(1R)-2-Amino-1-(carboxymethyl)ethyl]-2-chlorophenyl}amino)benzoic acid] | agonist or partial agonist activity |
| NC[C@H](CC(=O)O)c1ccc(Cl)c(Oc2cccc(C(=O)O)c2)c1 [Example 22, 3-{5-[(1R)-2-Amino-1-(carboxymethyl)ethyl]-2-chlorophenoxy}benzoic acid] | agonist or partial agonist activity |
| Cl.NC[C@H](CC(=O)O)c1ccc(Cl)c(-c2ccc(C(=O)O)cc2)c1 [Example 24, 4-{5-[(1R)-2-Amino-1-(carboxymethyl)ethyl]-2-chlorophenyl}benzoic acid hydrochloride] | agonist or partial agonist activity |
| Cl.NC[C@H](CC(=O)O)c1ccc(Cl)c(-c2cccc(CO)c2)c1 [Example 28, (3R)-4-Amino-3-{4-chloro-3-[3-(hydroxymethyl)phenyl]phenyl}butanoic acid hydrochloride] | agonist or partial agonist activity |
| Cc1ncc(-c2cc([C@H](CN)CC(=O)O)ccc2Cl)cn1.Cl [Example 30, (3R)-4-Amino-3-[4-chloro-3-(2-methylpyrimidin-5-yl)phenyl]butanoic acid hydrochloride] | agonist or partial agonist activity |
| Cl.NC[C@H](CC(=O)O)c1ccc(Cl)c(-c2cccc(O)c2)c1 [Example 34, (3R)-4-Amino-3-[4-chloro-3-(3-hydroxyphenyl)phenyl]butanoic acid hydrochloride] | agonist or partial agonist activity |
| COc1cccc(-c2cc([C@H](CN)CC(=O)O)ccc2Cl)c1.Cl [Example 35, (3R)-4-Amino-3-[4-chloro-3-(3-methoxyphenyl)phenyl]butanoic acid hydrochloride] | agonist or partial agonist activity |
